The values below come from patent US8921576B2, “Spiroindoline compound, and medicinal agent comprising same” (Kowa Company, Ltd., priority 2011, dated 2014).

The first test has as its system normal mice (C57BL/6j mice). Nature of the test: Oral glucose tolerance test after single administration of test compound in normal mice. The class given is in vivo. The conditions noted are these: 30 mg/kg oral in 10% Gelucire44/14; 2 g/kg glucose oral 30 minutes later; versus solvent alone; FIG. 1. How it is done:
FIG. 1 is a view showing the results of an oral sugar tolerance test that was carried out after completion of a single administration of the compound of Example 68, in which the 30 mg/kg compound was orally administered to normal mice, and 30 minutes later, 2 g/kg glucose was orally administered thereto, followed by confirmation of a hypoglycemic action of the compound.
The test compound (Example 68) (30 mg/kg) suspended in 10% (v/v) Gelucire44/14 (GATTEFOSSE) was orally administered to normal mice (C57BL/6j mice, CLEA Japan, Inc.). Thirty minutes later, 2 g/kg glucose was orally administered to the mice. The blood glucose level was measured using an automatic blood glucose level measurement apparatus (Medisafe, TERUMO), before administration of the test compound, 25 minutes after administration of the test compound, and 15, 30, 60, and 120 minutes after administration of glucose. Thus, the action of the test compound to lower blood glucose level was evaluated.
On to `CC(=O)N1CCC2(C1)CN(C(=O)Nc1ncc(F)s1)c1ccc(Cl)cc12` (stereo not shown) [Example 68, 1′-acetyl-5-chloro-N-(5-fluorothiazol-2-yl)spiro[indoline-3,3′-pyrrolidine]-1-carboxamide], for which the “blood glucose level (action to lower blood glucose level)” value is “lower than that of the mice orally administered with the solvent alone”.

A further test concerns the target T1, GST-GK derived from human liver GK (Homo sapiens, UniProt P35557).
T1 construct: made in house; host or cells: Escherichia coli DH5α
T1 sequence (P35557 1-466 isoform P35557-2): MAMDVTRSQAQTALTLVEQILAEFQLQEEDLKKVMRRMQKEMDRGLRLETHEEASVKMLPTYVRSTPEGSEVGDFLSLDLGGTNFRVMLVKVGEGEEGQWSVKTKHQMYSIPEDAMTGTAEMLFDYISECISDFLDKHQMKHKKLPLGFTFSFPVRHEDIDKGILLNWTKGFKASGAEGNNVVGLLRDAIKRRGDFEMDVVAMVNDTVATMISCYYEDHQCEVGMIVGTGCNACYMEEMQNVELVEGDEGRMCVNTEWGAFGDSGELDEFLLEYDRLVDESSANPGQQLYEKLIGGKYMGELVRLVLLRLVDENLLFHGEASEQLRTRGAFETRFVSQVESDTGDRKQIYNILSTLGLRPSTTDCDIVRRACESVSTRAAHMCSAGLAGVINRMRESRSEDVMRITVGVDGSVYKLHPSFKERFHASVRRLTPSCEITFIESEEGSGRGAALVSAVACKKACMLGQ
Nature of the test: In vitro GK activity measurement test (G6PDH-coupled, OD340). The class given is biochemical. The conditions noted are these: test compound 1 μmol/L; glucose 2.5 mmol/L; 25° C.; OD340 slope with compound / without compound; read-out: GK activation rate (%). The procedure, abridged: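 GST-fused human liver glucokinase (variant 2, E. coli-expressed) at 0.1 μg/mL final, in pH 7.1 Hepes with 2.5 mmol/L glucose, 5 mmol/L ATP, NADP and G6PDH coupling, at 25° C. OD340 slope monitored over 10 min. Activation rate is slope with test compound (1 μmol/L) divided by slope without.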
As to `CNC(=O)CCCNC(=O)N1CCC2(C1)CN(C(=O)Nc1ncc(Cl)s1)c1ccc(Cl)cc12` (stereo not shown) [Example 472, 5-Chloro-N1-(5-chlorothiazol-2-yl)-N1′-(4-(methylamino)-4-oxobutyl)spiro[indoline-3,3′-pyrrolidine]-1,1′-dicarboxamide], the activity at 1 µM was 456%.
Still for that read-out and setting: the figure for `CC(=O)N1CC(CNC(=O)N2CCC3(C2)CN(C(=O)Nc2ncc(Cl)s2)c2ccc(Cl)cc23)C1` (stereo not shown) [Example 476, N1′-((1-acetylazetidin-3-yl)methyl)-5-chloro-N1-(5-chlorothiazol-2-yl)spiro[indoline-3,3′-pyrrolidine]-1,1′-dicarboxamide] is 445%.
As to `CONC(=O)N1CCC2(C1)CN(C(=O)Nc1ncc(Cl)s1)c1ccc(Cl)cc12` (stereo not shown) [Example 480, 5-Chloro-N1-(5-chlorothiazol-2-yl)-N1′-methoxyspiro[indoline-3,3′-pyrrolidine]-1,1′-dicarboxamide], the activity at 1 µM stood at 477%.
With `O=C(NO)N1CCC2(C1)CN(C(=O)Nc1ncc(Cl)s1)c1ccc(Cl)cc12` (stereo not shown) [Example 481, 5-chloro-N1-(5-chlorothiazol-2-yl)-N1′-hydroxyspiro[indoline-3,3′-pyrrolidine]-1,1′-dicarboxamide], the activity at 1 µM is 602%.
Still for that read-out and setting: with `CNC(=O)N1CC[C@@]2(C1)CN(C(=O)Nc1ncc(F)s1)c1ccc(C(F)(F)F)cc12` [Example 487, (R)—N1-(5-Fluorothiazol-2-yl)-N1′-methyl-5-(trifluoromethyl)spiro[indoline-3,3′-pyrrolidine]-1,1′-dicarboxamide] the figure was 659%; with `CNC(=O)N1CC[C@@]2(C1)CN(C(=O)Nc1ncc(OC)s1)c1ccc(C(F)(F)F)cc12` [Example 489, (R)—N1-(5-Methoxythiazol-2-yl)-N1′-methyl-5-(trifluoromethyl)spiro[indoline-3,3′-pyrrolidine]-1,1′-dicarboxamide], 645%.
